Where “and” joins values, the source holds several entries; their conditions need not be identical. Identical values can stand only once. Like-named read-outs stand apart in the source and are kept apart here.
Tested on: Friend Leukemia Virus
Assay: Inhibition of Friend Leukemia Virus-induced splenomegaly in mice, compounds intraperitoneally 24 hours after virus (Example 1(a))
Format: in vivo, BALB/c mice
Parameters: Actual Spleen Weight / Average Spleen Weight: unit not given here
Settings: for Actual Spleen Weight: single animal; for inhibition of FV-induced splenomegaly / anti-retroviral activity: Example 1(a); for inhibition in vivo at 0.1 mg / inhibition in vivo at 0.05 mg / inhibition in vivo at 0.2 mg: Mus musculus, ip; for Pooled Average % Inhibition: pooled over 50, 100, 200, 2 × 100 micrograms
Text: The effects of compositions according to the present invention on infection of mammals with Friend Leukemia Virus (FV) were examined.
Friend Leukemia Virus is an aggressive retrovirus which induces an acute erythroleukemia in sensitive strains of mice such as BALB/c and NIH swiss mice as described in Friend, C. J., Exp. Med. 105: 307-324, 1957; Friend, C. et al. Proc. Natl. Acad. Sci. USA 68: 378-383, 1971; Friend, C. et al. Natl. Cancer Inst. Mongr. 22: 508-552, 1966. The malignant transformation is the result of the combined activities of the Spleen Focus Forming Virus (SFFV) and the ecotropic Murine Friend Leukemia Helper Virus (F-MuLV). The acute erythroleukemia is characterized by hepatosplenomegaly (a marked increase in the size of the spleen and liver) and a severe anemia.
Friend Leukemia Virus was prepared by homogenizing the enlarged spleen of a mouse previously infected with FV, 10 days after intravenous virus injection. The spleen was homogenized in phosphate buffered saline in a volume equal to ten times the weight of the isolated spleen.
The effects of compositions according to the present invention on the increase in spleen size (splenomegaly) of BALB/c mice (Jackson Labs, Bar Harbor, ME) was examined. In these experiments, the virus (10^6 focus forming units--FFU) was inoculated intravenously and 100 micrograms of the compounds indicated in Table II were administered to the mice intraperitoneally 24 hours later. Each compound was administered once to two mice. The animals were sacrificed ten days later and their spleens weighed.
The present assay has been developed from similar assays using hypericin or pseudohypericin and employing higher numbers of experimental animals per group (e.g. 4 animals). It was discovered however that the specificity and sensitivity of this assay are such that an experimental group of two animals is of more than adequate predictive value.
As used in Table II (and subsequent Tables of this Example l(a) and (b), "average percent inhibition" is calculated as follows: [formula] wherein "ASWNC" designates "average spleen weight of negative control"; "ASWE" designates "average spleen weight of experimental (treated) subject"; and "ASWPC" designates "average spleen weight of positive control". Average spleen weight is the numerical average of spleen weights of each experimental group (in Table II each such group includes two members).
In these experiments, the virus (10^6 focus forming units--FFU) was inoculated intravenously, and the indicated doses of the antiviral compounds of this invention were administered to the BALB/c mice intraperitoneally 24 hours later. The animals were then sacrificed ten days later and their spleens weighed.
Pseudohypericin was diluted in phosphate buffered saline with 1% ethanol.
An expanded series of experiments was next performed in which various concentrations (i.e. 50, 100, 200 and 2×100, i.e., 100 micrograms administered twice) of a different set of PAC compounds (numbers 16-29 and 30-36 in Table III below) were administered intraperitoneally each according to the same protocol described above. Compounds 16-29 all had 3-5 fused, aromatic rings and no side groups except for oxygen or hydroxyl groups, whereas compounds 30-36 all had 3 fused aromatic rings and side chains selected from the group of oxygen, hydroxyl and methyl.
When 2 doses of the compounds were given, the second dose was administered 24-48 hours after the first injection. The animals were infected and splenomegaly determined as above for the compounds in Table II. In Table III, "pooled average percent inhibition" is calculated by adding the average percent inhibition for each experiment with the same compound and dividing the sum by the number of experiments (i.e. the number 4). […]

[1] = 100 micrograms i.p. once, 24 h after FV, Table II
[2] = 24 h, read-out: Average % Inhibition, 100 micrograms i.p. once, 24 h after FV, Table II
[3] = 24 h, 100 micrograms i.p. once, 24 h after FV, Table II, read-out: Average % Inhibition
[4] = dose 2 × 100 (micrograms) i.p., Table III
[5] = dose 50 (micrograms) i.p., Table III
[6] = dose 100 (micrograms) i.p., Table III
[7] = dose 200 (micrograms) i.p., Table III
[8] = dose 2 × 100 (micrograms) i.p., Table III, read-out: Average Perdosage % Inhibition
[9] = dose 50 (micrograms) i.p., Table III, read-out: Average Perdosage % Inhibition
[10] = dose 100 (micrograms) i.p., Table III, read-out: Average Perdosage % Inhibition
[11] = dose 200 (micrograms) i.p., Table III, read-out: Average Perdosage % Inhibition
[12] = read-out: Average Perdosage % Inhibition, dose 2 × 100 (micrograms) i.p., Table III
[13] = read-out: Average Perdosage % Inhibition, dose 50 (micrograms) i.p., Table III
[14] = read-out: Average Perdosage % Inhibition, dose 100 (micrograms) i.p., Table III
[15] = read-out: Average Perdosage % Inhibition, dose 200 (micrograms) i.p., Table III

| Structure (SMILES) | Average Spleen Weight [1] | Average Spleen Weight [4] | Average Spleen Weight [5] | Average Spleen Weight [6] | Average Spleen Weight [7] | Pooled Average % Inhibition (Table III) [%] | further results |
| --- | --- | --- | --- | --- | --- | --- | --- |
| c1cc2cccc3c2c(c1)c1c2c4cccc5cccc(c54)c2c2c4cccc5cccc(c54)c2c31 [Compound 1, Decacyclene] | 0.3636 | – | – | – | – | – | Average % Inhibition [1]: 57.5%; Actual Spleen Weight [1]: 0.3940 and 0.3331; inhibition of FV-induced splenomegaly / anti-retroviral activity: significantly inhibited FV-induced splenomegaly |
| O=C1OC(=O)c2ccc3c4ccc5c6c(ccc(c7ccc1c2c73)c64)C(=O)OC5=O [Compound 2, 3,4,9,10-Perylenetetracarboxylic dianhydride] | 0.8439 | – | – | – | – | – | Average % Inhibition [1]: 1.3%; Actual Spleen Weight [1]: 0.8678 and 0.8200 |
| O=C1c2ccccc2-c2ccc3c4ccc5c6c(ccc(c7ccc1c2c73)c64)-c1ccccc1C5=O [Compound 3, Isoviolanthrone] | 0.5001 | – | – | – | – | – | Average % Inhibition [1]: 41.5%; Actual Spleen Weight [1]: 0.5147 and 0.4855 |
| O=C1c2ccccc2-c2cc(O)c3c4c(O)cc5c6c(ccc(c7ccc1c2c73)c64)C(=O)c1ccccc1-5 [Compound 4, 16,17-Dihydroxydibenzanthrone] | 0.4194 | – | – | – | – | – | Average % Inhibition [1]: 50.9%; Actual Spleen Weight [1]: 0.4151 and 0.4234 |
| O=c1oc(=O)c2c3ccc4cccc5c6cccc7ccc(c12)c(c76)c3c45 [Compound 5, Benzo(GHI)Perylene-1,2-Dicarboxylic Anhydride] | 0.5101 | – | – | – | – | – | inhibition in vivo at 0.1 mg [2]: 40.5% |
| O=c1oc(=O)c2c3ccc4ccc5ccc6ccc7ccc(c12)c1c7c6c5c4c31 [Compound 6, 3,4-Coronenedicarboxylic anhydride] | 0.8700 | – | – | – | – | – | – |
| c1ccc2c(c1)C1c3ccccc3C2c2ccccc21 [Compound 7, Triptycene] | 0.4655 | – | – | – | – | – | inhibition of FV-induced splenomegaly / anti-retroviral activity: significantly inhibited FV-induced splenomegaly; inhibition in vivo at 0.1 mg [3]: 45.6% |
| c1cc2ccc3ccc4ccc5ccc6ccc1c1c2c3c4c5c61 [Compound 8, Coronene] | 0.4739 | – | – | – | – | – | inhibition of FV-induced splenomegaly / anti-retroviral activity: significantly inhibited FV-induced splenomegaly; inhibition in vivo at 0.1 mg [2]: 44.6% |
| Cc1cc2ccc3ccc4ccccc4c3c2c2c1ccc1ccccc12 [Compound 11, 3-Methylphenanthro(3,4-C)Phenanthrene] | 0.4235 | – | – | – | – | – | inhibition in vivo at 0.1 mg [2]: 50.5% |
| CC1=CC2CCc3ccc4ccccc4c3C2c2c1ccc1ccccc21 (stereo not shown) [Compound 12, 4A,5,6,12C-Tetrahydro-3-Methylphenanthro (3,4-C)phenanthrene] | 0.4531 | – | – | – | – | – | inhibition in vivo at 0.1 mg [2]: 47.1% |
| O=C1CC2CC(=O)c3ccc4ccccc4c3C2c2c1ccc1ccccc21 (stereo not shown) [Compound 13, 3,4,4A,5,6,12C-Hexahydrophenanthro (3,4-C)Phenanthrene-3,6-Dione] | 0.4742 | – | – | – | – | – | inhibition in vivo at 0.1 mg [3]: 44.6% |
| c1ccc2c(c1)ccc1ccc3ccc4ccc5ccccc5c4c3c12 [Compound 14, Phenanthro(3,4-C)Phenanthrene] | 0.5419 | – | – | – | – | – | inhibition in vivo at 0.1 mg [2]: 36.6% |
| O=C1CC2CCc3ccc4ccccc4c3C2c2c1ccc1ccccc21 (stereo not shown) [Compound 15, 3,4,4A,5,6,12C-Hexahydrophenanthro (3,4-C)phenanthren-3-one] | 0.3739 | – | – | – | – | – | inhibition in vivo at 0.1 mg [3]: 56.3% |
| C1CCc2c(c3c(c4c2CCCC4)CCCC3)C1 [Compound 16, Dodecahydrotriphenylene] | – | 1.1867 | 0.9508 | 1.6057 | 1.2478 | 24 | Actual Spleen Weight (dose 2 × 100 (micrograms) i.p., second dose 24-48 hours later, Table III): 1.161 and 1.2072; Average Perdosage % Inhibition [4]: 28%; Average Perdosage % Inhibition [5]: 44%; Actual Spleen Weight [5]: 0.9062 and 0.9954; Actual Spleen Weight [6]: 1.6206 and 1.5907; Average Perdosage % Inhibition [7]: 24%; Actual Spleen Weight [7]: 1.2007 and 1.2948 |
| c1ccc2c(c1)ccc1ccccc12 [Compound 17, Phenanthrene] | – | 1.0683 | 1.1350 | 1.2864 | 1.3501 | 26 | inhibition in vivo at 0.1 mg [8]: 36%; inhibition in vivo at 0.05 mg [9]: 31%; inhibition in vivo at 0.1 mg [10]: 21%; inhibition in vivo at 0.2 mg [11]: 17% |
| c1ccc2c(c1)c1ccccc1c1ccccc21 [Compound 19, Triphenylene] | – | 1.4063 | 1.0499 | 1.5345 | 1.3994 | 17 | inhibition in vivo at 0.1 mg [12]: 13%; inhibition in vivo at 0.05 mg [13]: 37%; inhibition in vivo at 0.1 mg [14]: 4%; inhibition in vivo at 0.2 mg [15]: 13% |
| c1ccc2c(c1)CCc1ccccc1-2 [Compound 20] | – | 1.5023 | 1.2758 | 2.0019 | 1.4315 | 3 | inhibition in vivo at 0.1 mg [8]: 6%; inhibition in vivo at 0.05 mg [9]: 22%; inhibition in vivo at 0.2 mg [11]: 11% |
| C1=CCC2=C(C1)CC1=C(CC=CC1)C2 [Compound 21, 1,4,5,8,9,10-Hexahydroanthracene] | – | 1.2624 | 1.4036 | 1.4121 | 1.2947 | 17 | inhibition in vivo at 0.1 mg [8]: 23%; inhibition in vivo at 0.05 mg [9]: 13%; inhibition in vivo at 0.1 mg [10]: 13%; inhibition in vivo at 0.2 mg [11]: 21% |
| c1ccc(-c2c3ccccc3c(-c3ccccc3)c3ccccc23)cc1 [Compound 22, 9,10-Diphenylanthracene] | – | 1.4120 | 0.9936 | 1.5171 | 1.5913 | 15 | inhibition in vivo at 0.1 mg [12]: 13%; inhibition in vivo at 0.05 mg [13]: 41%; inhibition in vivo at 0.1 mg [14]: 5%; inhibition in vivo at 0.2 mg [15]: 0% |
| c1cc2c3c(ccc4c3c1CCC4)CCC2 [Compound 23, 1,2,3,6,7,8-Hexahydropyrene] | – | 1.1281 | 1.2092 | 1.5131 | 1.0961 | 25 | inhibition in vivo at 0.1 mg [8]: 32%; inhibition in vivo at 0.05 mg [9]: 26%; inhibition in vivo at 0.1 mg [10]: 6%; inhibition in vivo at 0.2 mg [11]: 34% |
| O=C1C(c2ccccc2)=C(c2ccccc2)C(c2ccccc2)=C1c1ccccc1 [Compound 24, Tetraphenylcyclo pentadienone] | – | 1.2437 | 1.2959 | 1.3940 | 1.5070 | 16 | inhibition in vivo at 0.1 mg [8]: 24%; inhibition in vivo at 0.05 mg [9]: 20%; inhibition in vivo at 0.1 mg [10]: 14%; inhibition in vivo at 0.2 mg [11]: 6% |
